Patent US20250236627A1, “CERTAIN OCTAHYDROFURO[3,4- B]PYRAZINES AS GLP-1 RECEPTOR MODULATORS” (ASTRAZENECA AB, priority 2021, published 2025)

Assays:
human GLP-1R receptor = biological target: T1, human GLP-1R receptor (Homo sapiens, UniProt P43220, L260F); assay: CHOK1 GLP-1R cAMP Assay; assay type: cell-based; details: CHO-K1 cell line stably expressing human GLP-1R; HTRF cAMP detection
T1 construct: expressed in transfected cells; host or cells: CHO-K1 (ATCC CCL-61)
Description: A cell line stably expressing the human GLP-1R receptor (NM_002062.5, including the naturally-occurring variant Leu260Phe) in a CHO-K1 (ATCC® CCL-61™) was used for assay.
GLP-1 Receptor mediated agonist activity was determined in a cell based assay measuring cAMP levels in cells using Homogeneous Time-Resolved Fluorescence (HTRF) cAMP detection kit (CisBio catalog #62AM4PEC, cAMP Gs Dynamic range kit). The cAMP detection method is based on a competitive immunoassay, in which cAMP produced by the cells and cAMP labeled with the dye d2 compete for binding to a Europium-Cryptate-labeled anti-cAMP antibody. The specific HTRF signal is inversely proportional to the concentration of cAMP.
Compounds were added to individual well in 384 well-assay plates (Greiner #784076) using an Echo (LabCyte) dispenser from 10 mM stocks. Varying concentration of compounds were added to wells, and dimethyl sulfoxide was used to normalize each well to a volume of 100 nanoliter. A dose response curve of GLP1(7-36)NH2 (Bachem H-6795) was included in each run. 5 μL of cAMP concentration response standards are applied in specified wells in the assay plates.
Cryo-preserved cells are thawed and resuspended in assay buffer pre-heated to 37° C. (20 mM 2-[4-(2-hydroxyethyl)piperazin-1-yl]ethanesulfonic acid (HEPES) pH 7.4, lx Hank's Balanced Salt Solution (HBSS, Life Technologies #14065) supplemented with 0.1% (w/v) bovine serum albumin (Sigma, A-7030)). Cells were centrifuged at 250*g for 5 min at room temperature, and resuspend in room tempered assay buffer to a final density of 0.16*10^6 cell/mL, to deliver 800 cells/well. 5 μL of assay buffer with 1 mM 3-isobutyl-1-methylxanthin (IBMX; Sigma cat I-7018) was dispensed per well in assay plates using a multidrop combi (Thermo Scientific) subsequently 5 μL of cell suspension was distributed to relevant wells in the assay using a multidrop dispenser. Assay plates were incubated 20 min at room temperature.
Detection reagents, Europium-Cryptate-labeled anti-cAMP antibody and cAMP labeled with the dye d2, are diluted in lysis buffer, provided by the manufacturer. 5 μL of each detection reagent is supplemented to each assay well using a multidrop dispenser. Assay plates are incubated in the dark for at least one hour. The HTRF signal is measured using the HTRF module (excitation: 337 nm, emission A: 665 nm and emission B: 620 nm) in Pherastar FSX (BMG Labtech).
Raw data were converted to pM cAMP using the cAMP standard curve included in each run. Converted data were further analyzed in Genedata Screener (Genedata) and EC50 determinations were made from agonist dose-response curves analyzed with a curve fitting program using a 4-parameter logistic dose response equation (Equation y=A+((B−A)/1+((C/x)^D))) where A is no stimulation, B is full stimulation, C is the EC50 and D is the Hill slope). The percent effect was determined relative to a saturating concentration of a full GLP-1R agonist (GLP1(7-36)NH2 has 100% effect in this assay setup).

[1] = biological target: T2, endogenous human glucagon-like peptide 1 receptor (GLP-1R) (Homo sapiens, UniProt P43220); assay: EndoC cAMP Accumulation Assay; assay type: cell-based; details: EndoC-βH1 human pancreatic β cell line; HTRF cAMP assay
T2 construct: endogenous human glucagon-like peptide 1 receptor (GLP-1R) in a pancreatic insulinoma cell line; host or cells: EndoC-βH1 human pancreatic β cell line
T2 sequence (P43220 24-463): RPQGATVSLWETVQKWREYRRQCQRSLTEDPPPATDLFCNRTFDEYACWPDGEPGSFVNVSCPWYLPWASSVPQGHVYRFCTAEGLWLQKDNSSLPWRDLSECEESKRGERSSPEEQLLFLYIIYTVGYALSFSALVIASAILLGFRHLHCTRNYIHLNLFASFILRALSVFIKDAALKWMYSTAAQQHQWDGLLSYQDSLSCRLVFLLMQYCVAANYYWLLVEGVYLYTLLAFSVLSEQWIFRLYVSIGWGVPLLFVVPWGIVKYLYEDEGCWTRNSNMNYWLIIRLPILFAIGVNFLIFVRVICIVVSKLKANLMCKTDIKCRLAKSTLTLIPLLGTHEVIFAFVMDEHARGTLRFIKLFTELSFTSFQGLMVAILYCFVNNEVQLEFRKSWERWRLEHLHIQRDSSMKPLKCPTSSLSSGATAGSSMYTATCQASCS
Excerpt: EndoC cAMP Accumulation Assay
A HTRF (Homogeneous Time-Resolved Fluorescence) cAMP assay (cAMP Gs dynamic kit; CisoBio Cat #62AM4PEJ) was used to identify agonists of the endogenous human glucagon-like peptide 1 receptor (GLP-1R) in a pancreatic insulinoma cell line (EndoC-βH1). […] EndoC-βH1 cells have detectable GLP-1R mRNA as detected by qPCR^1. […] The EndoC-βH1 cell line is a valid model of human beta cells and applicable for screenings to identify novel drug target candidates (Mol. Metab., 2018, 8, 144-157). CisBio HTRF cAMP kits are based on a competitive immunoassay using cryptate-labelled anti-cAMP antibody and d2-labeled cAMP. The detection kit is intended for the direct quantitative determination of cAMP. The specific signal (i.e. energy transfer) is inversely proportional to the concentration of cAMP in the standard or sample. Test compounds (10 mM in DMSO) were diluted into assay buffer (HBSS (Sigma #H8264) supplemented with 25 mM HEPES (Gibco #15630, pH 7.4), 0.1% BSA (Sigma #A3059) and 0.5 mM IBMX (Sigma #I7018) included fresh on the day of the assay) into 96 well U-bottom plates (Greiner #650201). Diluted compounds were transferred to ECHO source PP plates (Labcyte #P-05525) and dose response curves were dispensed acoustically using ECHO 550 into black shallow-well u-bottom 384-well HTRF Assay Plates (Corning 4514).
Cryovials of EndoC-H1 (supplied at 1×10e^7 cells/vial) were used directly for screening. The cryovials and were removed from LN2 and thawed rapidly in a 37° C. water bath. The cells were resuspended in assay buffer and centrifuged at 300 g for 5 min. Cells were resuspended in assay buffer at the appropriate concentration, typically at 12e5 cells per mL (3000 cells per well, dependent on cell batch) and 2.5 μL diluted cells were added to all wells of destination plate by Multidrop combi reagent dispenser (Thermofisher). The plates were incubated at room temperature for 30 min. The assay was stopped by adding 2.5 μL anti-cAMP cryptate solution to all wells and 2.5 μL cAMP-d2 solution (both diluted 1:20 in lysis buffer) to columns 1-22 by Combi drop. A volume of 2.5 μL cAMP-d2 solution was added to wells E23 to P24 and 2.5 μL lysis buffer added to wells A23 to D24 by multichannel pipette. The plates were incubated at room temperature for 1 hr and read on an Envision plate reader using excitation wavelength of 320 nm and emission of 590 nm and 660 nm.
Raw data from Envision is converted to % DeltaF according to the manufacturer's instructions. Dose response curves are analysed via 4-Parameter Logistical Analysis and assay plate Z′ values obtained. Samples are graphed as percentage (%) activation plots compared to GIP (1-42, Bachem H-5645) with assay window defined by negative control as basal cell cAMP levels and positive control are defined by maximum GIP (82.5 nM) signal. GLP1 (7-36 amide, Bachem H-6795) dose response curve was included on all plates.

T1 sequence (P43220 24-463 L260F): as the sequence (P43220 24-463) above, with L237F counted along it

Row | EC50 (human GLP-1R receptor) | EC50 [1] | Structure (SMILES)
1 | 520 nM | 1100 nM | C[C@]1(c2ccc(Cl)cc2F)Oc2cccc(N3CCN(Cc4nc5ccc(C(=O)O)cc5n4C[C@@H]4CCO4)[C@H]4COC[C@H]43)c2O1 (single isomer, unassigned) [Example 6d, 2-(((4aR*,7aS*)-4-((R*)-2-(4-Chloro-2-fluorophenyl)-2-methylbenzo[d][1,3]dioxol-4-yl)hexahydrofuro[3,4-b]pyrazin-1(2H)-yl)methyl)-1-(((S)-oxetan-2-yl)methyl)-1H-benzo[d]imidazole-6-carboxylic acid]
2 | 46 nM | 19 nM | C[C@]1(c2ccc(Cl)cc2F)Oc2cccc(N3CCN(Cc4nc5ccc(C(=O)O)cc5n4CCn4cccn4)[C@H]4COC[C@H]43)c2O1 (single isomer, unassigned) [Example 7a]
3 | 110 nM | 3900 nM | C[C@]1(c2ccc(Cl)cc2F)Oc2cccc(N3CCN(Cc4nc5ccc(C(=O)O)cc5n4CCn4cccn4)[C@H]4COC[C@H]43)c2O1 (single isomer, unassigned) [Example 7c]
4 | 530 nM | 1100 nM | C[C@]1(c2ccc(Cl)cn2)Oc2cccc(N3CCN(Cc4nc5ccc(C(=O)O)cc5n4C[C@@H]4CCCO4)[C@H]4COC[C@H]43)c2O1 (single isomer, unassigned) [Example 8b, 2-(((4aR*,7aS*)-4-((R*)-2-(5-Chloropyridin-2-yl)-2-methylbenzo[d][1,3]dioxol-4-yl)hexahydrofuro[3,4-b]pyrazin-1(2H)-yl)methyl)-1-(((S)-tetrahydrofuran-2-yl)methyl)-1H-benzo[d]imidazole-6-carboxylic acid]
5 | 180 nM | 660 nM | C[C@]1(c2ccc(Cl)cn2)Oc2cccc(N3CCN(Cc4nc5c(F)cc(C(=O)O)cc5n4C[C@@H]4CCO4)[C@H]4COC[C@H]43)c2O1 (single isomer, unassigned) [Example 9b, 2-((4aR*,7aS*)-4-((R*)-2-(5-Chloropyridin-2-yl)-2-methylbenzo[d][1,3]dioxol-4-yl)hexahydrofuro[3,4-b]pyrazin-1(2H)-yl)methyl)-4-fluoro-1-(((S)-oxetan-2-yl)methyl)-1H-benzo[d]imidazole-6-carboxylic acid]

Further lines, the molecule ahead of its results:

Row | Structure (SMILES) | EC50 (human GLP-1R receptor) | EC50 [1]
6 | C[C@]1(c2ccc(Cl)cn2)Oc2cccc(N3CCN(Cc4nc5c(Cl)cc(C(=O)O)cc5n4C[C@@H]4CCCO4)[C@H]4COC[C@H]43)c2O1 (single isomer, unassigned) [Example 4a, 4-Chloro-2-(((4aR*,7aS*)-4-((R*)-2-(5-chloropyridin-2-yl)-2-methylbenzo[d][1,3]dioxol-4-yl)hexahydrofuro[3,4-b]pyrazin-1(2H)-yl)methyl)-1-(((S)-tetrahydrofuran-2-yl)methyl)-1H-benzo[d]imidazole-6-carboxylic acid] | 5.1 nM | 4.6 nM
7 | C[C@]1(c2ccc(Cl)cn2)Oc2cccc(N3CCN(Cc4nc5c(Cl)cc(C(=O)O)cc5n4C[C@@H]4CCCO4)[C@H]4COC[C@H]43)c2O1 (single isomer, unassigned) [Example 4b, 4-Chloro-2-(((4aR*,7aS*)-4-((R*)-2-(5-chloropyridin-2-yl)-2-methylbenzo[d][1,3]dioxol-4-yl)hexahydrofuro[3,4-b]pyrazin-1(2H)-yl)methyl)-1-(((S)-tetrahydrofuran-2-yl)methyl)-1H-benzo[d]imidazole-6-carboxylic acid] | 80 nM | 130 nM
8 | C[C@]1(c2ccc(Cl)cn2)Oc2cccc(N3CCN(Cc4nc5ccc(C(=O)O)cc5n4C[C@@H]4CCO4)[C@H]4COC[C@H]43)c2O1 (single isomer, unassigned) [Example 5c, 2-(((4aR*,7aS*)-4-((R*)-2-(5-Chloropyridin-2-yl)-2-methylbenzo[d][1,3]dioxol-4-yl)hexahydrofuro[3,4-b]pyrazin-1(2H)-yl)methyl)-1-(((S)-oxetan-2-yl)methyl)-1H-benzo[d]imidazole-6-carboxylic acid] | 100 nM | 610 nM
9 | C[C@]1(c2ccc(Cl)cn2)Oc2cccc(N3CCN(Cc4nc5ccc(C(=O)O)cc5n4C[C@@H]4CCO4)[C@H]4COC[C@H]43)c2O1 (single isomer, unassigned) [Example 5d, 2-(((4aR*,7aS*)-4-((R*)-2-(5-Chloropyridin-2-yl)-2-methylbenzo[d][1,3]dioxol-4-yl)hexahydrofuro[3,4-b]pyrazin-1(2H)-yl)methyl)-1-(((S)-oxetan-2-yl)methyl)-1H-benzo[d]imidazole-6-carboxylic acid] | 330 nM | 2100 nM
10 | C[C@]1(c2ccc(Cl)cc2F)Oc2cccc(N3CCN(Cc4nc5ccc(C(=O)O)cc5n4C[C@@H]4CCO4)[C@H]4COC[C@H]43)c2O1 (single isomer, unassigned) [Example 6b, 2-(((4aR*,7aS*)-4-((R*)-2-(4-Chloro-2-fluorophenyl)-2-methylbenzo[d][1,3]dioxol-4-yl)hexahydrofuro[3,4-b]pyrazin-1(2H)-yl)methyl)-1-(((S)-oxetan-2-yl)methyl)-1H-benzo[d]imidazole-6-carboxylic acid] | 54 nM | 300 nM
11 | C[C@]1(c2ccc(Cl)cc2F)Oc2cccc(N3CCN(Cc4nc5ccc(C(=O)O)cc5n4C[C@@H]4CCO4)[C@H]4COC[C@H]43)c2O1 (single isomer, unassigned) [Example 6c, 2-(((4aR*,7aS*)-4-((R*)-2-(4-Chloro-2-fluorophenyl)-2-methylbenzo[d][1,3]dioxol-4-yl)hexahydrofuro[3,4-b]pyrazin-1(2H)-yl)methyl)-1-(((S)-oxetan-2-yl)methyl)-1H-benzo[d]imidazole-6-carboxylic acid] | 39 nM | 150 nM
